# Experimental data taken from the supplement of paper PMC10307832.
# Legend:
# Assay in all cases: relative viability (nuclei count vs DMSO), 5 days (fraction); higher = more cells survive
# [1] = compound: C[C@@]1(C(=O)Nc2ccc(F)nc2)CCCN1c1nc(Nc2cc(C3CC3)n[nH]2)c2cccn2n1 + Cc1nc(Nc2ncc(C(=O)Nc3c(C)cccc3Cl)s2)cc(N2CCN(CCO)CC2)n1 [Dasatinib] (partner 0.075 µM)
# Procedure, shortened: (§1)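 Cells from lung cancer lines were seeded into 1536-well plates and, one day later, dosed by pin tool. Treatments were either a single drug or a fixed dose of an anchor drug with five library-drug doses (not always all listed) in √10 steps. After 5 days, nuclei were stained in a one-step fixation (final 0.05% Triton X-100, 1% formaldehyde, 1 ug/ml Hoechst) and counted on 4× images, and relative viability is the treated-to-vehicle nuclei ratio, as the median of duplicate plates.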
# [2] = compound: C[C@@]1(C(=O)Nc2ccc(F)nc2)CCCN1c1nc(Nc2cc(C3CC3)n[nH]2)c2cccn2n1 + CCNC(=O)c1noc(-c2cc(C(C)C)c(O)cc2O)c1-c1ccc(CN2CCOCC2)cc1 [Luminespib] (partner 0.01 µM)
# Procedure, shortened: as §1
# Motesanib + Decitabine = compound: CC1(C)CNc2cc(NC(=O)c3cccnc3NCc3ccncc3)ccc21 [Motesanib] + Nc1ncn([C@H]2C[C@H](O)[C@@H](CO)O2)c(=O)n1 [Decitabine] (partner 2 µM)
# Procedure, shortened: as §1
# Motesanib + Bortezomib = compound: CC1(C)CNc2cc(NC(=O)c3cccnc3NCc3ccncc3)ccc21 [Motesanib] + CC(C)C[C@H](NC(=O)[C@H](Cc1ccccc1)NC(=O)c1cnccn1)B(O)O [Bortezomib] (partner 0.002 µM)
# Procedure, shortened: as §1
Cell Line,relative viability ([1]; first compound 0.04 µM),relative viability ([1]; first compound 0.1265 µM),relative viability ([1]; first compound 0.4 µM),relative viability ([1]; first compound 1.265 µM),relative viability ([2]; first compound 0.04 µM),relative viability ([2]; first compound 0.1265 µM),relative viability ([2]; first compound 0.4 µM),relative viability ([2]; first compound 1.265 µM),relative viability (Motesanib + Decitabine; first compound 0.01 µM),relative viability (Motesanib + Decitabine; first compound 0.03162 µM),relative viability (Motesanib + Decitabine; first compound 0.1 µM),relative viability (Motesanib + Decitabine; first compound 0.3162 µM),relative viability (Motesanib + Decitabine; first compound 1 µM),relative viability (Motesanib + Bortezomib; first compound 0.01 µM),relative viability (Motesanib + Bortezomib; first compound 0.03162 µM),relative viability (Motesanib + Bortezomib; first compound 0.1 µM),relative viability (Motesanib + Bortezomib; first compound 0.3162 µM),relative viability (Motesanib + Bortezomib; first compound 1 µM)
NCI-H1395,0.374,0.34,0.388,0.378,0.768,0.717,0.583,0.889,0.765,0.698,0.795,0.739,0.791,,,,,
NCI-H1563,0.404,0.413,0.343,0.323,0.545,0.506,0.547,0.528,,,,,,0.934,0.812,0.956,0.882,0.904
NCI-H1623,0.465,0.247,0.438,0.412,0.47,0.368,0.345,0.403,,,,,,,,,,
NCI-H1648,,,,,,,,,0.498,,,0.531,0.42,,,,,
NCI-H1703,,,,,,,,,,,,,,0.25,0.264,0.228,0.192,0.265
NCI-H1793,0.448,0.36,,0.335,0.581,0.18,,0.604,0.561,0.539,0.663,0.755,0.589,,,,,
NCI-H1944,0.173,0.154,0.145,0.166,0.562,0.652,0.399,0.586,0.477,0.444,0.495,0.534,0.508,,,,,
NCI-H2170,0.572,0.564,0.47,0.414,0.521,0.505,0.45,0.521,0.485,0.509,0.575,0.576,0.604,,,,,
NCI-H2228,0.414,0.278,0.22,0.208,0.121,0.121,0.15,0.116,,,,,,0.957,1.13,0.881,1.28,1.01
NCI-H2342,0.356,0.26,0.294,0.264,0.63,0.606,0.505,0.499,0.765,0.608,0.759,0.765,0.9,,,,,
SK-MES-1,0.27,0.244,0.159,0.153,0.666,0.664,0.763,0.609,0.358,0.383,0.59,0.561,0.695,,,,,
SW 900,0.555,0.32,0.507,0.346,0.18,0.198,0.188,0.155,0.58,0.475,0.632,0.677,0.749,,,,,
